Laboratory results as given in the OligoGym collection.
“And” between values parts separate entries of the source, which are not always exact repeats. Equal values may be shown once. After the bases stand the sugars from the 5' end (letter, count) and the backbone: PS all phosphorothioate, else s phosphorothioate and o phosphodiester by linkage. Methylation of C is not given here. e = 2'-O-(2-methoxyethyl) (MOE); k = constrained ethyl (cEt); d = 2'-deoxy (DNA)

target: MALAT1; conditions: ASO, A431, 0.005 µM

Point of comparison: CTCCCAATTAATCTTT (sugars k3 d10 k3, PS), target mRNA inhibition 27%. Against it:
- CACAATTCTTAATCAG (sugars k3 d10 k3, PS) — higher, 41%
- TGAAAACTCCCCCCCG (sugars k3 d10 k3, PS) — lower, 21%
- CCAACTGCTTGCAGTC (sugars k3 d10 k3, PS) — lower, 25%
- TTAACCAACTTCCCCT (sugars k3 d10 k3, PS) — higher, 43%
- TAAGAGACATTCAAGC (sugars k3 d10 k3, PS) — lower, 17%
- ATGCCCACAAGGATCC (sugars k3 d10 k3, PS) — higher, 33%
- CTACAACAAGTAAGCC (sugars k3 d10 k3, PS) — lower, 7%
- TATCAATTCACCAAGG (sugars k3 d10 k3, PS) — lower, 1%
- CAACCGTAACAGGCCA (sugars k3 d10 k3, PS) — lower, 23%
- TTACCAACCACTCGCT (sugars k3 d10 k3, PS) — lower, 2%
- CCTGCCTTAAAGTTAC (sugars k3 d10 k3, PS) — lower, 20%
- GCCAAGCACTCATATG (sugars k3 d10 k3, PS) — lower, 24%
- TACTTAGCTGTGGTTT (sugars k3 d10 k3, PS) — lower, 23%
- ATTTATAGACCCCTGA (sugars k3 d10 k3, PS) — lower, -8%
- GAGAACTGCTCTAGTT (sugars k3 d10 k3, PS) — higher, 34%
- CAGGAACAAGTCCTAC (sugars k3 d10 k3, PS) — lower, 19%
- TGGAACTTGAATGCAA (sugars k3 d10 k3, PS) — lower, 10%
- CGAAACTCCCCCATTA (sugars k3 d10 k3, PS) — lower, 15%
- GTTAACATGCAAACTT (sugars k3 d10 k3, PS) — lower, 13%
- GGACTCTTTTCCTATC (sugars k3 d10 k3, PS) — lower, -4%
- CGGTACACTCCTTCTC (sugars k3 d10 k3, PS) — higher, 40%
- CCATAACTGATCTGAC (sugars k3 d10 k3, PS) — lower, 13%
- GCCTCTTCATTGTATT (sugars k3 d10 k3, PS) — lower, 10%
- TTGAAGCATACCTTAA (sugars k3 d10 k3, PS) — higher, 28%
- TTAAGACCATCCCAAA (sugars k3 d10 k3, PS) — lower, 5%
- TGCTCGCCTCCTCCGT (sugars k3 d10 k3, PS) — higher, 34%
- CCTTCTGAACCGGAGC (sugars k3 d10 k3, PS) — lower, -4%
- AGATGGACATTGCCTC (sugars k3 d10 k3, PS) — higher, 48%
- AACCACAACAATTTAG (sugars k3 d10 k3, PS) — lower, 16%
- TTCCGCTCAAATCCTG (sugars k3 d10 k3, PS) — higher, 35%
- ACTCAGAAGATGTTAT (sugars k3 d10 k3, PS) — higher, 30%
- CTGTTACACCTTGAGT (sugars k3 d10 k3, PS) — higher, 33%
- CTAATCACTGTCAATT (sugars k3 d10 k3, PS) — lower, -1%
- TTTACTTGCCAACAGA (sugars k3 d10 k3, PS) — the same, 27%
- TACTCCAAGCATTGGG (sugars k3 d10 k3, PS) — lower, 0%
- CGGAGAACAACTCGCA (sugars k3 d10 k3, PS) — lower, -4%
- GGTACTTCAAGCATTC (sugars k3 d10 k3, PS) — higher, 44%
- CCTACCACTCTAAGAT (sugars k3 d10 k3, PS) — the same, 27%
- GGCCAGACCAACCCCC (sugars k3 d10 k3, PS) — lower, 3%
- GTTAAACTTATCTGTT (sugars k3 d10 k3, PS) — higher, 41%
- ATGTACTCAGCTTCAA (sugars k3 d10 k3, PS) — higher, 44%
- TGAAGCATACCTTAAC (sugars k3 d10 k3, PS) — higher, 31%
- TACTCTTGATCTTGAA (sugars k3 d10 k3, PS) — higher, 46%
- CTATAAGGACAGCTAA (sugars k3 d10 k3, PS) — lower, 4%
- CATGCAATACTGCAGA (sugars k3 d10 k3, PS) — lower, 15%
- GCCTGCTCGCCTCCTC (sugars k3 d10 k3, PS) — higher, 41%
- TTCTAGCTTCAAGTAT (sugars k3 d10 k3, PS) — lower, 25%
- GTCCTAGCTTCATCAA (sugars k3 d10 k3, PS) — lower, 18%
- CTGAGAAAACAATACG (sugars k3 d10 k3, PS) — lower, 8%
- GGCTCGATGGAAAAAT (sugars k3 d10 k3, PS) — higher, 33%
- CAGCTTCAATCACAAA (sugars k3 d10 k3, PS) — higher, 33%
- GCTCACATGCCAGTTA (sugars k3 d10 k3, PS) — higher, 32%
- AGCCTTCGGTGCCTTT (sugars k3 d10 k3, PS) — lower, 5%
- TATATTTAAGGCCTTC (sugars k3 d10 k3, PS) — higher, 45%
- GATTCTAACAGCACAT (sugars k3 d10 k3, PS) — higher, 31%
- TGTAAGAATTAAGACC (sugars k3 d10 k3, PS) — lower, 18%
- TAGTAGCTTTTTGATG (sugars k3 d10 k3, PS) — higher, 31%
- AGGAAGGCTCCATGGT (sugars k3 d10 k3, PS) — lower, 11%
- CACTCATATGCAATTC (sugars k3 d10 k3, PS) — higher, 37%
- CGGTTGAGAAGTGGCA (sugars k3 d10 k3, PS) — lower, -11%
- GCAGGCTATTACCTGA (sugars k3 d10 k3, PS) — lower, 19%
- GCTACTATATTTAAGG (sugars k3 d10 k3, PS) — higher, 29%
- CTTCCGCCGCCTCTTA (sugars k3 d10 k3, PS) — lower, 9%
- CTTACTTGATAATACA (sugars k3 d10 k3, PS) — higher, 35%
- CAGTTGCCGCCAGCCC (sugars k3 d10 k3, PS) — lower, -3%
- TAACCTATTGACTATA (sugars k3 d10 k3, PS) — lower, 22%
- TTATTCCCCAATGGAG (sugars k3 d10 k3, PS) — lower, 18%
- AATTACCTAAACCCAC (sugars k3 d10 k3, PS) — lower, 0%
- AAGCATTGCCCTTCTA (sugars k3 d10 k3, PS) — higher, 46%
- TAGTCTGAAGAATACC (sugars k3 d10 k3, PS) — lower, 23%
- TCCCTGAAGGTGTTCG (sugars k3 d10 k3, PS) — lower, 18%
- AGATTAGTAGTCAAAG (sugars k3 d10 k3, PS) — lower, -12%
- TTATAGCTTGACAAGC (sugars k3 d10 k3, PS) — higher, 37%
- AGCCAGTCAGGGACAC (sugars k3 d10 k3, PS) — lower, -3%
- ACCTTAACATCTTGTT (sugars k3 d10 k3, PS) — lower, 15%
- AGCTTCAACTGGGAAT (sugars k3 d10 k3, PS) — lower, 13%
- AGTGTTCGCAGACAAA (sugars k3 d10 k3, PS) — higher, 34%
- CTTAACAGCTTATGGA (sugars k3 d10 k3, PS) — higher, 30%
- TCTCAATTTGGCTATC (sugars k3 d10 k3, PS) — higher, 29%
- CTAACAGCACATCATG (sugars k3 d10 k3, PS) — higher, 32%
- GATAACGAAGAGATAC (sugars k3 d10 k3, PS) — lower, 19%
- CATCAAACACTGGTTC (sugars k3 d10 k3, PS) — lower, 14%
- ACCACTCGCTTTCCCT (sugars k3 d10 k3, PS) — higher, 35%
- CCGAAGACACAGAGAC (sugars k3 d10 k3, PS) — lower, 2%
- CGCTCAAATCCTGATC (sugars k3 d10 k3, PS) — lower, 23%
- AACAGGTCATCTATTC (sugars k3 d10 k3, PS) — higher, 33%
- CTCTAAGATTGTAAGC (sugars k3 d10 k3, PS) — lower, 16%
- ATTACTTCCGTTACGA (sugars k3 d10 k3, PS) — higher, 43%
- CTTCTAAGTTTGTACA (sugars k3 d10 k3, PS) — higher, 47%
- TAACATGCAATACTGC (sugars k3 d10 k3, PS) — lower, 18%
- AGCATACCTTAACATC (sugars k3 d10 k3, PS) — lower, 19%
- TCCAGTCTACAAGTTA (sugars k3 d10 k3, PS) — higher, 31%
- AGGCAAACGAAACATT (sugars k3 d10 k3, PS) — higher, 35%
- TATTCCTTTCATAGAG (sugars k3 d10 k3, PS) — lower, 11%
- TATCTTCACCACGAAC (sugars k3 d10 k3, PS) — lower, 0%
- CTGCGGCCCCCCAGTT (sugars k3 d10 k3, PS) — lower, 25%
- TACAAAACGAATTCAG (sugars k3 d10 k3, PS) — lower, 20%
- TACTTTAAGCCTTCGG (sugars k3 d10 k3, PS) — higher, 29%
- TATATAAGGTCAATAG (sugars k3 d10 k3, PS) — lower, 5%
- CAAGCTGAACTATCAC (sugars k3 d10 k3, PS) — the same, 27%
- AGAGCTACTTAGCTGT (sugars k3 d10 k3, PS) — lower, 16%

With GATTCCGTAACTTTAA (sugars k3 d10 k3, PS) the target mRNA inhibition was 69% and 90%.
ATTGGGAGTTACTTGC (sugars k3 d10 k3, PS) was tested, and the target mRNA inhibition was 63% and 85%.
With CCAGTCTACAAGTTAC (sugars k3 d10 k3, PS) the target mRNA inhibition was 50% and 56%.
In the case of AATCCTGATCTGGTCC (sugars k3 d10 k3, PS), the target mRNA inhibition is reported as 46% and 66%.
With GCTTATTCCCCAATGG (sugars k3 d10 k3, PS) the target mRNA inhibition was 73% and 48% and 50%.
CGAATTCAGGGTGAGG (sugars k3 d10 k3, PS) was tested, and the target mRNA inhibition was 68% and 87%.
With CTGCATCTAGGCCATC (sugars k3 d10 k3, PS) the target mRNA inhibition was 65% and 52%.
With “ATGGAGGTATGACATATAAT (sugars e5 d10 e5, PS)” the target mRNA inhibition was 22% and 25%.
With TCAAGCATTCCTTCGG (sugars k3 d10 k3, PS) the target mRNA inhibition was 73% and 67%.
With TTATGCTTATTCCCCA (sugars k3 d10 k3, PS) the target mRNA inhibition was 75% and 85%.
With TCCTTAGTTGGCATCA (sugars k3 d10 k3, PS) the target mRNA inhibition was 76% and 68%.
For CTGTTATGTTCACCTG (sugars k3 d10 k3, PS), the target mRNA inhibition was 56% and 77%.
